Source: paper PMC10600239, “Selective MCL-1 inhibitor ABBV-467 is efficacious in tumor models but is associated with cardiac troponin increases in patients” (Communications Medicine, 2023)

Experiments:
Assay in all cases: Off-target profiling (Supplementary Data 1)
[1] = biological target: off-target receptors, ion channels, and transporters (Homo sapiens, UniProt O00141); settings: TR-FRET Kinome; Millipore A-1213250.2 .03(Subs Conc)
[2] = biological target: off-target receptors, ion channels, and transporters (Homo sapiens, UniProt O75716); settings: TR-FRET Kinome; Invitrogen A-1213250.2 .0125(Subs Conc)
[3] = biological target: off-target receptors, ion channels, and transporters (Homo sapiens, UniProt P00519); settings: TR-FRET Kinome; Invitrogen A-1196581.2 .007(Subs Conc)
[4] = biological target: off-target receptors, ion channels, and transporters (Homo sapiens, UniProt P08588)
[5] = biological target: off-target receptors, ion channels, and transporters (Homo sapiens, UniProt P24941); settings: TR-FRET Kinome; Invitrogen A-1233106.2 .025(Subs Conc)
[6] = biological target: off-target receptors, ion channels, and transporters (Homo sapiens, UniProt P25101)
[7] = biological target: off-target receptors, ion channels, and transporters (Homo sapiens, UniProt P30411)
[8] = biological target: off-target receptors, ion channels, and transporters (Homo sapiens, UniProt P31749); settings: TR-FRET Kinome; SignalChem A-1169612.6 .2(Subs Conc)
[9] = biological target: off-target receptors, ion channels, and transporters (Homo sapiens, UniProt P41595)
[10] = biological target: off-target receptors, ion channels, and transporters (Homo sapiens, UniProt P42681); settings: TR-FRET Kinome; SignalChem A-1224127.6 .005(Subs Conc)
[11] = biological target: off-target receptors, ion channels, and transporters (Homo sapiens, UniProt P43405); settings: TR-FRET Kinome; Invitrogen A-1167389.7 .001(Subs Conc)
[12] = biological target: off-target receptors, ion channels, and transporters (Homo sapiens, UniProt P45983); settings: TR-FRET Kinome; Invitrogen A-1196442.2 .1(Subs Conc)
[13] = biological target: off-target receptors, ion channels, and transporters (Homo sapiens, UniProt P51955); settings: TR-FRET Kinome; Invitrogen A-1196581.2 .025(Subs Conc)
[14] = biological target: off-target receptors, ion channels, and transporters (Homo sapiens, UniProt P52333); settings: TR-FRET Kinome; Invitrogen A-1180691.2 .05(Subs Conc)
[15] = biological target: off-target receptors, ion channels, and transporters (Homo sapiens, UniProt P57059); settings: TR-FRET Kinome; Invitrogen A-1167389.7 .005(Subs Conc)
[16] = biological target: off-target receptors, ion channels, and transporters (Homo sapiens, UniProt Q04771); settings: TR-FRET Kinome; Invitrogen A-1180691.2 .05(Subs Conc)
[17] = biological target: off-target receptors, ion channels, and transporters (Homo sapiens, UniProt Q06418); settings: TR-FRET Kinome; Invitrogen A-1169612.6 .05(Subs Conc)
[18] = biological target: off-target receptors, ion channels, and transporters (Homo sapiens, UniProt Q07343); settings: read-out: PDE4B2 Human - IC50; Bioprofiling 6pt Antag; cAMP
[19] = biological target: off-target receptors, ion channels, and transporters (Homo sapiens, UniProt Q13627); settings: TR-FRET Kinome; Invitrogen A-1180691.2 .0125(Subs Conc)
[20] = biological target: off-target receptors, ion channels, and transporters (Homo sapiens, UniProt Q16288); settings: TR-FRET Kinome; Invitrogen A-1202211.2 .025(Subs Conc)
[21] = biological target: off-target receptors, ion channels, and transporters (Homo sapiens, UniProt Q8IU85); settings: TR-FRET Kinome; Invitrogen A-1167389.7 .025(Subs Conc)
[22] = biological target: off-target receptors, ion channels, and transporters (Homo sapiens, UniProt Q96GD4); settings: TR-FRET Kinome; Invitrogen A-1202211.2 .05(Subs Conc)
[23] = biological target: off-target receptors, ion channels, and transporters (Homo sapiens, UniProt Q96RR4); settings: TR-FRET Kinome; Invitrogen A-1167389.7 .005(Subs Conc)
[24] = biological target: off-target receptors, ion channels, and transporters (Homo sapiens, UniProt Q9UKP6); settings: CEREP
off-target receptors, ion channels, and transporters (Homo sapiens, UniProt Q9UKP6), sequence (Q9UKP6 whole entry): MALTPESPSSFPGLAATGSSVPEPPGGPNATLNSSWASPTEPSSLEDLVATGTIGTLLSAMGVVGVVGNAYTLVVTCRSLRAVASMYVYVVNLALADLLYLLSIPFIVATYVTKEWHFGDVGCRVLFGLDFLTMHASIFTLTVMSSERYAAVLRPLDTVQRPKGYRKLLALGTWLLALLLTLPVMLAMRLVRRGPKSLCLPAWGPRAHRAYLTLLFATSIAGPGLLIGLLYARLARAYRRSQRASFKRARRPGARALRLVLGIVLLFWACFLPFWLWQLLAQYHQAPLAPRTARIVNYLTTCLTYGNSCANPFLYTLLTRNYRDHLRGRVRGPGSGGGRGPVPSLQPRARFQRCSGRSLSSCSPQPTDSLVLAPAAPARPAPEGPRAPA

off-target receptors, ion channels, and transporters (Homo sapiens, UniProt P41595), sequence (P41595 whole entry): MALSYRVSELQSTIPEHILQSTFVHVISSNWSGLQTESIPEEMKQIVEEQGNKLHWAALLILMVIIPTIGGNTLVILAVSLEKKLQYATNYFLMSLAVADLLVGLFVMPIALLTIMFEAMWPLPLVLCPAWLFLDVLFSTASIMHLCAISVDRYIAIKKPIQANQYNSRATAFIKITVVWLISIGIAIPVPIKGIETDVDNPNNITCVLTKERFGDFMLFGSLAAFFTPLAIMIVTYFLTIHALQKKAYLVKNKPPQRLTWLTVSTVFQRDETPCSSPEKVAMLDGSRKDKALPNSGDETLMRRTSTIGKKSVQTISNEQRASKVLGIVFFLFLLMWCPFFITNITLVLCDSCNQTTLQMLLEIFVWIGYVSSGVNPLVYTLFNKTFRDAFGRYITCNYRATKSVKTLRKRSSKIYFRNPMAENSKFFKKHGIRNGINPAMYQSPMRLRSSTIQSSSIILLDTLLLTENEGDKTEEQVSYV
off-target receptors, ion channels, and transporters (Homo sapiens, UniProt P30411), sequence (P30411 whole entry): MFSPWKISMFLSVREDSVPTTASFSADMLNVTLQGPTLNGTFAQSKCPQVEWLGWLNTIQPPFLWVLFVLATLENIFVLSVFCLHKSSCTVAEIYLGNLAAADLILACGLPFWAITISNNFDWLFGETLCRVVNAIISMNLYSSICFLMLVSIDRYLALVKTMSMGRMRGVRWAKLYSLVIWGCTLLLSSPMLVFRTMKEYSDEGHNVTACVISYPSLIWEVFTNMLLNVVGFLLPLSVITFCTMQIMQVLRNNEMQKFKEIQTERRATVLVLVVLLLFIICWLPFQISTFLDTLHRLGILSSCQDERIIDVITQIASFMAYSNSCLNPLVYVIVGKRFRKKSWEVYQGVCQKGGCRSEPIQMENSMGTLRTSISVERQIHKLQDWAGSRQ
off-target receptors, ion channels, and transporters (Homo sapiens, UniProt P25101), sequence (P25101 21-427): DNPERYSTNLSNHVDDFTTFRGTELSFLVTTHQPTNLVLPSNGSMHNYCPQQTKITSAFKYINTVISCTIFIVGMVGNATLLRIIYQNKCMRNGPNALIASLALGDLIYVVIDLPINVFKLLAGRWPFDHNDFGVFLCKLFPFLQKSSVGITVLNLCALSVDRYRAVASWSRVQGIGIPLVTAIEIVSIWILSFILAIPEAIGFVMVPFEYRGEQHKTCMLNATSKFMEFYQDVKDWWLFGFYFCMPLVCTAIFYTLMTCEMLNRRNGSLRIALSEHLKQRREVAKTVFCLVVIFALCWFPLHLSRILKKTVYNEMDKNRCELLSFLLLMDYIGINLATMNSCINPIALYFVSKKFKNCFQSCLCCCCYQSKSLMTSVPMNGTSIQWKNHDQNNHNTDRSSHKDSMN
off-target receptors, ion channels, and transporters (Homo sapiens, UniProt Q16288), sequence (Q16288 32-839): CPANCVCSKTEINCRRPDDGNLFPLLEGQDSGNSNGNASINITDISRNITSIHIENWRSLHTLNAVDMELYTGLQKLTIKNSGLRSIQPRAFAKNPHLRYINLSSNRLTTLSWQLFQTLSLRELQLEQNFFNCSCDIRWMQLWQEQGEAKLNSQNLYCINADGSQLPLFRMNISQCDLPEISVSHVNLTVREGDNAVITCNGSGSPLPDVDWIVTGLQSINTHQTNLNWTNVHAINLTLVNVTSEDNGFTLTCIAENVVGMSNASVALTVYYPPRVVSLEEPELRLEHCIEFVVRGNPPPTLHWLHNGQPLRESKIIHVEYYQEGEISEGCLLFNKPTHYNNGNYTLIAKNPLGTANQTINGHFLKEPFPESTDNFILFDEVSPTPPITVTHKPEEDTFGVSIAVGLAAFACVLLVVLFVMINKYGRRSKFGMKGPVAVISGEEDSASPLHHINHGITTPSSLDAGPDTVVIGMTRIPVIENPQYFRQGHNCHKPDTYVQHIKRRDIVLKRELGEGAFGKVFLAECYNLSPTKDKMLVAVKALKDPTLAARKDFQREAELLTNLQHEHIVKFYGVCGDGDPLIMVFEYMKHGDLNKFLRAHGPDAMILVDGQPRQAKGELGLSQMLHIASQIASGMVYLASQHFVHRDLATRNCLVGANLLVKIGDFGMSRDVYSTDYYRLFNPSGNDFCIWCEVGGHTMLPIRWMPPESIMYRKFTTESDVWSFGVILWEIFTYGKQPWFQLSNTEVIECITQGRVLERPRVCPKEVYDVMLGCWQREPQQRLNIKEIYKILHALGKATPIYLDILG
off-target receptors, ion channels, and transporters (Homo sapiens, UniProt P08588), sequence (P08588 whole entry): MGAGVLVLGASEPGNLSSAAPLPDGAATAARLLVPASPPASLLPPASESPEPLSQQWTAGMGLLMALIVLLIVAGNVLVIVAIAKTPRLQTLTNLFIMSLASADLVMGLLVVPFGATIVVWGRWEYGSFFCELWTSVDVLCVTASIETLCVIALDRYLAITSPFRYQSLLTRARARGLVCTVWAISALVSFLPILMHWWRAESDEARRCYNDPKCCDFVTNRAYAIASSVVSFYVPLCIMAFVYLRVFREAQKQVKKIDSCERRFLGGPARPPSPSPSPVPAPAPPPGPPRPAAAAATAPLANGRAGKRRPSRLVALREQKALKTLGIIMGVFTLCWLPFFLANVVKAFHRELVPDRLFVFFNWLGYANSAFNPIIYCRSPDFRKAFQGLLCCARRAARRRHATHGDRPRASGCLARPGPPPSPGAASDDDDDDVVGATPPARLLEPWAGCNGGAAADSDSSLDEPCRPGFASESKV
off-target receptors, ion channels, and transporters (Homo sapiens, UniProt P51955), sequence (P51955 whole entry): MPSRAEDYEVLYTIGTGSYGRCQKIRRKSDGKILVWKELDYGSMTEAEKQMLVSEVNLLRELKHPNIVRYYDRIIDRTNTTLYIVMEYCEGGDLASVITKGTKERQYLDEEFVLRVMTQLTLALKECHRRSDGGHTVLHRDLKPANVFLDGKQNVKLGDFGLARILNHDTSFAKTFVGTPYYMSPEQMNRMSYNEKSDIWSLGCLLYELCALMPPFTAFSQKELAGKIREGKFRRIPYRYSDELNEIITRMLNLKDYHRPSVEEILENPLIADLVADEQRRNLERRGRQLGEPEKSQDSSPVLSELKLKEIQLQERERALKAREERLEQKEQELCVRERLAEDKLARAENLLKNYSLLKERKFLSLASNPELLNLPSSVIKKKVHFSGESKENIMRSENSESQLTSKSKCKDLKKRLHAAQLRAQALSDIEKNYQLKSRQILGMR
off-target receptors, ion channels, and transporters (Homo sapiens, UniProt P52333), sequence (P52333 whole entry): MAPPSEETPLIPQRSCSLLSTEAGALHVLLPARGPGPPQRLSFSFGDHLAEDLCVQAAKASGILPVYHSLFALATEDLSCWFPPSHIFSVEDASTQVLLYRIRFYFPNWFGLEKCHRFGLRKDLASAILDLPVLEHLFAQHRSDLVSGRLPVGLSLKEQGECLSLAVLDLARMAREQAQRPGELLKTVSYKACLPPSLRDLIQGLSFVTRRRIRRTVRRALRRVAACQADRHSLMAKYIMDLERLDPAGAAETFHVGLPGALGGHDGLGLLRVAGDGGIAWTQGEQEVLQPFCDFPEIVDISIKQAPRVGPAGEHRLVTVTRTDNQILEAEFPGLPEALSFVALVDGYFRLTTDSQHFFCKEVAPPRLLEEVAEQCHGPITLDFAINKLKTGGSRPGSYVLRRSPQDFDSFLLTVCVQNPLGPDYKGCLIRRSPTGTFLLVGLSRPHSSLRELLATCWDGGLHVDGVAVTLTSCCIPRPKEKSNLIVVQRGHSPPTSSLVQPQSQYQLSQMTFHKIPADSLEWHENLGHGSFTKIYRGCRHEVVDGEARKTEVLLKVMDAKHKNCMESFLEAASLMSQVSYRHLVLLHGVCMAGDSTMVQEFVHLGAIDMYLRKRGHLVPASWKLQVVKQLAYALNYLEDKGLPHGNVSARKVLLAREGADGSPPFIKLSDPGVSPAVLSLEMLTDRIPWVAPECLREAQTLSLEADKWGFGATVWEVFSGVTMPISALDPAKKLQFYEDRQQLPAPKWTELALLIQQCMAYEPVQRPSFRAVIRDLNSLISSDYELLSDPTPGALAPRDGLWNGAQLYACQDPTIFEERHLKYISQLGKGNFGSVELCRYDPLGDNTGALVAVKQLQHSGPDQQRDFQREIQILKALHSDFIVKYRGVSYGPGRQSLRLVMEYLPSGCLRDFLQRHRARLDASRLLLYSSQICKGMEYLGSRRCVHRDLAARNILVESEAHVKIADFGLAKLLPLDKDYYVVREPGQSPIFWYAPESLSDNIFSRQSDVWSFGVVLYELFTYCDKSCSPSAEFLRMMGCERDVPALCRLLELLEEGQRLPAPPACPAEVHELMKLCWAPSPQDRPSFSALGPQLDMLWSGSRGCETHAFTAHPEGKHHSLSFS
off-target receptors, ion channels, and transporters (Homo sapiens, UniProt Q04771), sequence (Q04771 21-509): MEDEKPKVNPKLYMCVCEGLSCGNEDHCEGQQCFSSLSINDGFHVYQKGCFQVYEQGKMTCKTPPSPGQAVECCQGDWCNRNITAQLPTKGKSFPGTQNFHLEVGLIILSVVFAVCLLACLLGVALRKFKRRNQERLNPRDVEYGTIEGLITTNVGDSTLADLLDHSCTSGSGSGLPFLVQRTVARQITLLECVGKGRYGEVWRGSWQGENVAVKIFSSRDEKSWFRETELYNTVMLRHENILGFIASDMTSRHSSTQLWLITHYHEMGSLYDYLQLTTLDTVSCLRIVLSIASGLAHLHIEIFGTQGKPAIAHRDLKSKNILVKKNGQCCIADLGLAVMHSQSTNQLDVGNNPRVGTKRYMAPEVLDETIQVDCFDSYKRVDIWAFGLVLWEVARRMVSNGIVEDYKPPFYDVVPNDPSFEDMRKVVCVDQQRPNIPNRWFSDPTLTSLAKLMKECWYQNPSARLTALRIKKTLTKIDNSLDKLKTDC

Cc1c(Cl)c2c(Cl)c(C)c1-c1c(-c3ccc(F)cc3)sc3ncnc(c13)O[C@@H](C(=O)O)Cc1cc(ccc1OCc1ccnc(-c3ccc(OC[C@H]4COCCO4)cc3)n1)OC[C@@H](CN1CCN(C)CC1)O2 [ABBV-467]
SGK1 - IC50 [1]: > 10 µM
STK16 - IC50 [2]: > 10 µM
Abl - IC50 [3]: > 10 µM
Beta1 CHO Human - EC50 ([4]; Bioprofiling 6pt Ag): > 10 µM
Beta1 CHO Human - IC50 ([4]; Bioprofiling 6pt Antag, Norepinephrine): > 10 µM
cdk2 - IC50 [5]: > 10 µM
ETA CHO Human - EC50 ([6]; Bioprofiling 6pt Ag): > 10 µM
ETA CHO Human - IC50 ([6]; Bioprofiling 6pt Antag, Endothelin-1 (ET-1)): > 10 µM
B2 CHO Human - EC50 ([7]; Bioprofiling 6pt Ag): > 10 µM
B2 CHO Human - IC50 ([7]; Bioprofiling 6pt Antag, Bradykinin): >10.00 µM
Akt1 - IC50 [8]: > 10 µM
5-HT2B CHO Human - EC50 ([9]; Bioprofiling 6pt Ag): > 10 µM
5-HT2B CHO Human - IC50 ([9]; Bioprofiling 6pt Antag, Serotonin (5-HT)): > 10 µM
5-HT2B Human (Functional - Agonist Effect) - EC50 ([9]; CEREP): > 100 µM
5-HT2B Human (Functional - Antagonist Effect) - IC50 ([9]; CEREP): >100.00 µM
5-HT2B Human (Functional - Antagonist Effect) - Kb ([9]; CEREP): >15.30 µM
TXK - IC50 [10]: > 10 µM
Syk - IC50 [11]: > 10 µM
JNK1 - IC50 [12]: > 10 µM
Nek2 - IC50 [13]: > 10 µM
JAK3 - IC50 [14]: > 10 µM
SIK1 - IC50 [15]: > 10 µM
ACVR1 - IC50 [16]: > 10 µM
TYRO3 - IC50 [17]: > 10 µM
IC50 [18]: > 10 µM
Dyrk1A - IC50 [19]: > 10 µM
TrkC - IC50 [20]: > 10 µM
TrkC - Ki [20]: >4.65 µM
CAMK1D - IC50 [21]: > 10 µM
Aurora1 - IC50 [22]: > 10 µM
CAMKK2 - IC50 [23]: > 10 µM
EC50 ([24]; read-out: Urotensin-II (UT1) Human (Functional - Agonist Effect) - EC50): > 30 µM
IC50 ([24]; read-out: Urotensin-II (UT1) Human (Functional - Antagonist Effect) - IC50): > 30 µM
